Data from US20110251230A1, “THERAPEUTICS FOR NEUROLOGICAL DISORDERS” (UNIVERSITY OF SHEFFIELD, priority 2008, published 2011).
pEC50, pIC50: −log10 of the molar value. Where two headings read alike, the source gives them in different places.

What was measured:
[1] = tested on: 1321N1 (human) astrocytic line
Description: (§1) A simple oxidative stress assay was used to determine whether preconditioning with NRF2-ARE inducing drugs could protect against a subsequent oxidative stress insult (serum withdrawal). The NSC34, C6 and 1321N1 cells were plated in 96 well tissue culture plates to achieve 30% confluency. […] Media was then replaced with serum free, phenol free media for 5 hrs. […] Cell survival assay was then performed on the cells as protection is measured as % reduction in DCF signal, therefore data points were excluded where a decrease in cell number was measured.
(§2) Briefly methylthiazolyldiphenyl-tetrazolium bromide (MTT) was added to the cells and a blank well to a final concentration 0.5 mg/ml and incubated at 37° C. for 1-3 hrs depending on the cell line used.

[2] = tested on: 1321N1 (human) astrocytic line; test: 1321N1 oxidative stress assay (serum withdrawal, DCF); conditions: for pIC50: 1321N1, 24 h pre-treatment, serum withdrawal, DCF; for Lowest dose with toxicity: 1321N1; for Maximal % reduction in Oxidative stress: 1321N1, DCF fluorescence
Description: as §1, §2

[3] = tested on: NSC34 mouse motor neuronal cells
Description: as §1, §2

[4] = tested on: NRF2-ARE pathway in the CHO 4× ARE-TK cell line; test: ARE reporter assay in CHO 4×ARE-TK-GFP cell line (GFP induction, EthD1 toxicity); conditions: for maximal fold induction: read-out: Average fold GFP induction at maximal response; for pEC50: read-out: Average EC50
Description: Chinese Hamster Ovary (CHO), NSC34 mouse motor neuronal cells, C6 (rat) and 1321N1 (human) astrocytic lines were routinely maintained in DMEM supplemented with 10% FBS and penicillin/streptomycin. […] These plasmids were transfected into CHO, C6 and 1321N1 cell lines using Lipofectamine 2000 (Invitrogen) and following 10-14 days of selection in 0.5 mg/ml G418 they were expanded and selected for basal eGFP expression using fluorescence activated cell sorting (BD, FACSAria) with two sequential cell sorts for each cell line. These mixed populations of stable transfectants with basal eGFP expression were used in subsequent assays and designated 4×ARE-TK-GFP for the ARE containing line and TK-GFP for the control cell line. […]
Confluent cultures of 4×ARE-TK-GFP CHO or TK-GFP CHO expressing cells in 96 or 384-well tissue-culture plates were treated with drug (0.01-100 µM in triplicate) or vehicle (0.1-1% DMSO) in FCS-free DMEM in triplicate for 24 hours. The media was removed and replaced with the same volume of PBS containing 0.3 μM EthD1. […] Non-linear regression was used to fit a sigmoidal dose-response curve on a semi-Log plot to calculate the EC50 using GraphPad Prism (GraphPad Software). The reporter assay was conducted in a similar fashion in C6 and 1321N1 astrocyte cell lines stably transfected with the 4×ARE-TK-GFP and TK-GFP constructs except that Eth D1 was added directly in the media and read prior to washing the cells once and reading the […] signal. […]
The compounds were applied in triplicate to confluent cells in 96 well plates in serum free medium for 24 hours and the induction of GFP measured in a fluorescence plate reader. […]

C6 (rat) astrocytic line [5] = tested on: C6 (rat) astrocytic line
Description: as §1, §2

C6 (rat) astrocytic line [6] = test: C6 oxidative stress assay (serum withdrawal, DCF); conditions: for pIC50: C6, 24 h pre-treatment, serum withdrawal, DCF; for Lowest dose with toxicity: C6; for Maximal % reduction in Oxidative stress: C6, DCF fluorescence
Description: as §1, §2

[7] = tested on: NSC34 mouse motor neuronal cells; test: NSC34 oxidative stress assay (serum withdrawal, DCF); conditions: for Lowest dose with toxicity: NSC34; for Maximal % reduction in Oxidative stress: NSC34, DCF fluorescence, negative = pro-oxidant
Description: as §1, §2

[8] = CHO 4×ARE-TK-GFP, GFP induction, 24 h

Q: Which “Lowest dose with toxicity” value [1] does the source give for `CC(=O)OC1CC[C@@]2(C)C(CC[C@H]3[C@@H]4CC=C(C(C)=O)[C@@]4(C)C(=O)C[C@@H]32)C1` (some centres unmarked) [3 acetoxypregn-16-en-12,20-dione] here?
A: none

Q: What about the pIC50 [2] of the same compound?
A: ~4.91

Q: What about the “Lowest dose with toxicity” value [3] of the same compound?
A: none

Q: And the “Lowest dose with toxicity” value ([4]; Chinese hamster, 24 h)?
A: 30 µM

Q: And the maximal fold induction ([4]; Cricetulus griseus, 24 h)?
A: 3.14

Q: And the “Lowest dose with toxicity” value (C6 (rat) astrocytic line [5])?
A: none

Q: Which results are given for `CC(C)N(C(=O)CCl)c1ccccc1` [Propachlor]?
A: Lowest dose with toxicity ([1]; human, 24 h): 10 µM; pIC50 [2]: 6.08; Lowest dose with toxicity ([3]; mouse, 24 h): 10 µM; pIC50 (C6 (rat) astrocytic line [6]): 6.19; Lowest dose with toxicity ([4]; Chinese hamster, 24 h): 100 µM; pEC50 ([4]; Cricetulus griseus, 24 h): 5.83; maximal fold induction ([4]; Cricetulus griseus, 24 h): 3.25; Lowest dose with toxicity (C6 (rat) astrocytic line [5]; rat, 24 h): 10 µM

Q: For `O=C1C=C2C=C[C@@H]3C[C@@]2(O1)[C@H]1CCCCN31` [Securinine], which “Lowest dose with toxicity” value [2] is on record?
A: none

Q: What about the pIC50 [2] of the same compound?
A: 4.74

Q: And the “Lowest dose with toxicity” value [7]?
A: none

Q: What about the “Lowest dose with toxicity” value (C6 (rat) astrocytic line [6]) of the same compound?
A: none

Q: And the pIC50 (C6 (rat) astrocytic line [6])?
A: 6.19

Q: What about the “Lowest dose with toxicity” value ([4]; CHO ARE reporter assay) of the same compound?
A: 30 µM

Q: And the pEC50 ([4]; Cricetulus griseus, 24 h)?
A: 5.67

Q: What about the maximal fold induction ([4]; Cricetulus griseus, 24 h) of the same compound?
A: 3

Q: With `CC1=CC(=O)C(C(C)C)=CC1=O` [Thymoquinone] as the compound, how does the “Lowest dose with toxicity” value [2] read?
A: none

Q: What about the “Lowest dose with toxicity” value [7] of the same compound?
A: none

Q: And the “Lowest dose with toxicity” value (C6 (rat) astrocytic line [6])?
A: none

Q: And the “Lowest dose with toxicity” value ([4]; Chinese hamster, 24 h)?
A: 30 µM

Q: What about the maximal fold induction ([4]; Cricetulus griseus, 24 h) of the same compound?
A: 2.58

Q: Which results are given for `CC(=O)O[C@@H]1C[C@H]2C(C)(C)C(=O)C=C[C@]2(C)[C@H]2CC[C@]3(C)C(=CC(=O)O[C@H]3c3ccoc3)[C@@]21C` [deoxygedunin]?
A: Lowest dose with toxicity [2]: 10 µM; pIC50 [2]: 5.85; Maximal % reduction in Oxidative stress [2]: 25%; Lowest dose with toxicity [7]: 10 µM; Maximal % reduction in Oxidative stress [7]: 7%; Lowest dose with toxicity (C6 (rat) astrocytic line [6]): none; pIC50 (C6 (rat) astrocytic line [6]): 5.66; Maximal % reduction in Oxidative stress (C6 (rat) astrocytic line [6]): 61%; Average fold GFP induction at maximal response ([4]; CHO 4×ARE-TK-GFP, 24 h): 1.82 fold; Lowest dose with toxicity ([4]; CHO ARE reporter assay): 30 µM; pEC50 [4, 8]: 5.94

Q: Which “Lowest dose with toxicity” value [2] does the source give for `O=C(CC[N+](=O)[O-])OC[C@H]1O[C@@H](O)[C@H](OC(=O)CC[N+](=O)[O-])[C@@H](OC(=O)CC[N+](=O)[O-])[C@@H]1OC(=O)CC[N+](=O)[O-]` [endecaphyllin X] here?
A: none

Q: And the “Maximal % reduction in Oxidative stress” value [2]?
A: 56%

Q: And the “Lowest dose with toxicity” value [7]?
A: 10 µM

Q: What about the “Maximal % reduction in Oxidative stress” value [7] of the same compound?
A: 0%

Q: What about the “Lowest dose with toxicity” value (C6 (rat) astrocytic line [6]) of the same compound?
A: none

Q: What about the pIC50 (C6 (rat) astrocytic line [6]) of the same compound?
A: 5.50

Q: And the “Maximal % reduction in Oxidative stress” value (C6 (rat) astrocytic line [6])?
A: 40%

Q: And the “Average fold GFP induction at maximal response” value ([4]; CHO 4×ARE-TK-GFP, 24 h)?
A: 2.15 fold

Q: And the “Lowest dose with toxicity” value ([4]; CHO ARE reporter assay)?
A: None

Q: And the pEC50 [4, 8]?
A: 4.73

Q: How did the “Lowest dose with toxicity” value [1] turn out when `C[C@@H]1C(=O)O[C@H]2[C@H]1CC[C@@]1(C)C=CC(=O)[C@@]3(C)O[C@@]213` [epoxy(4,5α)-4,5-dihydrosantonin] was run?
A: none

Q: And the pIC50 [2]?
A: 6.18

Q: What about the “Maximal % reduction in Oxidative stress” value [2] of the same compound?
A: 63%

Q: What about the “Lowest dose with toxicity” value [3] of the same compound?
A: 3 µM

Q: What about the “Maximal % reduction in Oxidative stress” value [7] of the same compound?
A: 0%

Q: What about the pIC50 (C6 (rat) astrocytic line [6]) of the same compound?
A: 5.67

Q: What about the “Maximal % reduction in Oxidative stress” value (C6 (rat) astrocytic line [6]) of the same compound?
A: 62%

Q: What about the “Average fold GFP induction at maximal response” value ([4]; CHO 4×ARE-TK-GFP, 24 h) of the same compound?
A: 2.91 fold

Q: And the “Lowest dose with toxicity” value ([4]; CHO ARE reporter assay)?
A: 100 µM

Q: And the pEC50 [4, 8]?
A: 4.74

Q: What about the “Lowest dose with toxicity” value (C6 (rat) astrocytic line [5]) of the same compound?
A: none
